Data taken from PMC5514404 (EBioMedicine, 2017).

Assays:
[1] = system: extracellular HIV-1 Tat release from HEK293T cells; assay: HIV-1 Tat secretion assay; type: cell-based, human
HIV-1 replication = conditions: ref Ewart et al., 2004; cited from earlier work
rat Na^+,K^+-ATPase = conditions: ref Emanuel et al., 1988; cited from earlier work
[2] = system: HIV-1BRU infectivity in Jurkat cells; type: cell-based; conditions: P < 0.01
[3] = system: wt HIV-1BRU production by HEK293T cells; type: cell-based; conditions: p24 ELISA; ouabain; P<0.01 over untreated
[4] = system: VSV-G-pseudotyped HIV-1NL4.3E-R-Luc infection of Jurkat cells; type: cell-based
HEK293T cells = conditions: ouabain 15 h
[5] = system: rat Na^+,K^+-ATPase α1 (interaction with Tat); assay: Co-immunoprecipitation of Tat with transfected rat Na^+,K^+-ATPase α1; conditions: HEK293T transfected with rat α1 constructs and Tat86-TK / Tat11-TK
[6] = system: VSV-G-pseudotyped HIV-1NL4.3E-R-Luc infectivity in Jurkat cells; type: cell-based
[7] = system: Na^+,K^+-ATPase α1 subunit (interaction with Tat); assay: Co-immunoprecipitation of Tat with endogenous Na^+,K^+-ATPase α1 subunit; type: cell-based, human; conditions: HEK293T, Tat86 transfected; ouabain 25 μM, 4 h
[8] = system: VSV-G pseudotyped HIV-1NL4.3E-R-Luc production by HEK293T cells; type: cell-based
[9] = system: HIV-1 LTR transactivation in HL3T1 cells by supernatants of Tat86-transfected HEK293T cells; assay: Transcellular transactivation assay; type: cell-based; conditions: ouabain 25 μM, 4 h; HL3T1 24 h; CAT ELISA
[10] = system: HIV-1BRU infectivity in primary CD4 + lymphocytes; type: cell-based; conditions: p24 at 72 h, P < 0.01
[11] = target: Tat86 used in surface plasmon resonance (HIV-1 (strain HXB2), UniProt P04608 1-86); assay: SPR

Molecule: heparin
- amount of free Tat-TK protein in the supernatant ([1]; HEK293T, soluble heparin 25 μM): increased

Molecule: CCN(c1nc(N)c(C(=O)NC(=N)N)nc1Cl)C(C)C [EIPA, 5-(N-ethyl-N-isopropyl)amiloride]
- effect on HIV-1 replication (HIV-1 replication): known to limit HIV-1 replication

Molecule: C[C@@H]1O[C@@H](O[C@H]2C[C@@H](O)[C@]3(CO)[C@H]4[C@H](O)C[C@]5(C)[C@@H](C6=CC(=O)OC6)CC[C@]5(O)[C@@H]4CC[C@]3(O)C2)[C@H](O)[C@H](O)[C@H]1O [ouabain]
- sensitivity of rat Na^+,K^+-ATPase enzyme to ouabain (rat Na^+,K^+-ATPase): insensitive to ouabain
- viral integration (Alu-PCR) by HIV-1BRU produced in presence of ouabain [2]: reduced viral integration
- infectivity of HIV-1BRU produced in presence of ouabain ([2]; p24 at 72 h): markedly less infectious
- production of wt HIV-1BRU virions [3]: The same was also observed for wt HIV-1BRU virions
- effect of ouabain present at infection on virions produced without ouabain [4]: unaffected by the presence of the drug
- cell toxicity during virus production (HEK293T cells): did not exert significant cell toxicity
- co-immunoprecipitation with Tat / ouabain effect, rat α1 [5]: binding is not sensitive to ouabain
- infectivity of virions produced in presence of ouabain [6]: markedly less infectious
- viral integration (Alu-PCR) by virions produced in presence of ouabain [6]: reduced viral integration
- effect on Tat protein production ([1]; protein levels in whole cell extracts, ouabain 25 μM): did not affect Tat protein production
- effect on Tat-α1 co-immunoprecipitation (endogenous α1) [7]: abolished this interaction
- production of VSV-G pseudotyped virions [8]: significantly decreased the production of VSV-G pseudotyped virions
- effect of ouabain on transcellular transactivation [9]: blocked transcellular transactivation
- infectivity of HIV-1BRU produced in presence of ouabain [10]: markedly less infectious

B1: PMIX, equimolar mixture of the individual P1, P2 and P3 peptides (other, rat)
peptide 1: YEQAESDIMKRQPRNPKTDK
peptide 2: TRRNSVFQQGMKN
peptide 3: LIIRRRPGGWVEKETYY
- IC50 [11]: 0.5 µM

Molecule: TRRNSVFQQGMKN (peptide, UniProt P06685 939-951, looked up) [synthetic P2 peptide]
- IC50 [11]: 10 µM
